A short description of data set [1]: Plasma concentration in C57BL/6J mouse at 10 mg/kg/day, ip dosed for 5 days. Format: ADME, organism-based. Set-up: route intraperitoneal.
In data set [2] the test system is Mus musculus. Briefly: Increase in plasma triglyceride level in C57BL/6J mouse at 10 mg/kg/day, ip dosed for 5 days measured 2 hrs after last dose. The settings on record: route intraperitoneal. It is filed as functional.
Data set [3] has as its system Mus musculus. Briefly: Increase in liver triglyceride level in C57BL/6J mouse at 10 mg/kg/day, ip dosed for 5 days measured 2 hrs after last dose. As to conditions: route intraperitoneal. It is filed as functional.
Data set [4] can be described thus: Drug level in C57BL/6J mouse liver at 10 mg/kg/day, ip dosed for 5 days. As to conditions: read-out: Drug uptake. It is filed as ADME, organism-based. Also noted: route intraperitoneal.
In data set [5] the test system is Mus musculus. Briefly: Increase in HDL-cholesterol level in C57BL/6J mouse at 10 mg/kg/day, ip dosed for 5 days measured 2 hrs after last dose. Format: functional. As to conditions: route intraperitoneal.
The target of data set [6] is T1, Oxysterols receptor LXR-alpha (Homo sapiens) (UniProt Q13133).
T1 sequence (whole entry): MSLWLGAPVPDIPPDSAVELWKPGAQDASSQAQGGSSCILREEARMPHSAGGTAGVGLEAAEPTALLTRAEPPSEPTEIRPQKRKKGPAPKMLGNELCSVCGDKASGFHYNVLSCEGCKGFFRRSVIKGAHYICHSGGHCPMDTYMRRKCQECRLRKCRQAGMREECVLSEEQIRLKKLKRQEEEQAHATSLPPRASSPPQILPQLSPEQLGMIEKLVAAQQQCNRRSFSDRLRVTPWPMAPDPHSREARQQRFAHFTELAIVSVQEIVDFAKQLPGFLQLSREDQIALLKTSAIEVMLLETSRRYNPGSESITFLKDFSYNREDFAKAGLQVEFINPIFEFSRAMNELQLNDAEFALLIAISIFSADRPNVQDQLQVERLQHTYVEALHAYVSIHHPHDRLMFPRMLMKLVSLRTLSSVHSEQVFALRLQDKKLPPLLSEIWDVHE
Briefly: (§1) Transactivation of LXRalpha.

The target in data set [7] is T1, Oxysterols receptor LXR-alpha (Homo sapiens). Briefly: (§2) Binding affinity to LXRalpha.
The target of data set [8] is T2, Oxysterols receptor LXR-alpha (Homo sapiens, UniProt Q13133).
T2 sequence (Q13133 whole entry): T1 sequence (whole entry)
The data set is described as §1.

Data set [9] deals with T2, Oxysterols receptor LXR-alpha. Described as §2.
Data set [10] is described as follows: Plasma concentration in C57BL/6J mouse at 100 mg/kg/day, ip dosed for 5 days. It is filed as ADME, organism-based. Also noted: route intraperitoneal.
Data set [11] has as its system Mus musculus. Briefly: Increase in plasma triglyceride level in C57BL/6J mouse at 100 mg/kg/day, ip dosed for 5 days measured 2 hrs after last dose. It is filed as functional. As to conditions: route intraperitoneal.
The test system of data set [12] is Mus musculus. Briefly: Increase in HDL-cholesterol level in C57BL/6J mouse at 100 mg/kg/day, ip dosed for 5 days measured 2 hrs after last dose. As to conditions: route intraperitoneal. Format: functional.
Data set [13] concerns Mus musculus. Briefly: Increase in liver triglyceride level in C57BL/6J mouse at 40 mg/kg/day, ip dosed for 5 days measured 2 hrs after last dose. It is filed as functional. The settings on record: route intraperitoneal.
Data set [14] concerns Mus musculus. Briefly: Increase in HDL-cholesterol level in C57BL/6J mouse at 40 mg/kg/day, ip dosed for 5 days measured 2 hrs after last dose. It is filed as functional. The settings on record: route intraperitoneal.
Data set [15] in a line: Drug level in C57BL/6J mouse liver at 40 mg/kg/day, ip dosed for 5 days. It is filed as ADME, organism-based. Also noted: route intraperitoneal. As to conditions: read-out: Drug uptake.
Data set [16] addresses Voltage-gated inwardly rectifying potassium channel KCNH2 (Homo sapiens, UniProt Q12809). Briefly: Binding affinity to human ERG.
The nature of data set [17]: Drug level in C57BL/6J mouse liver at 100 mg/kg/day, ip dosed for 5 days. Format: ADME, organism-based. Set-up: route intraperitoneal. As to conditions: read-out: Drug uptake.
A short description of data set [18]: Plasma concentration in C57BL/6J mouse at 40 mg/kg/day, ip dosed for 5 days. It is filed as ADME, organism-based. Set-up: route intraperitoneal.
A further data set concerns the target Cytochrome P450 3A4 (Homo sapiens, UniProt P08684). Briefly: Binding affinity to CYP3A4. It is filed as ADME.
For data set [19], the system named is Mus musculus. Briefly: Increase in liver triglyceride level in C57BL/6J mouse at 100 mg/kg/day, ip dosed for 5 days measured 2 hrs after last dose. The settings on record: route intraperitoneal. It is filed as functional.
Data set [20] concerns Mus musculus. Briefly: Increase in plasma triglyceride level in C57BL/6J mouse at 40 mg/kg/day, ip dosed for 5 days measured 2 hrs after last dose. Format: functional. The settings on record: route intraperitoneal.

From ChEMBL document CHEMBL1153298, “Discovery of tetrahydro-cyclopenta[b]indole as selective LXRs modulator” (Bioorg Med Chem Lett, 2009) come the findings set out here.

One may read the EC50 as the midpoint of the concentration-response curve. The low end stands for a more potent agent, the high end for a less potent agent. A word on the IC50: it is the concentration needed to halve the response being measured. Read a high IC50 as lower potency.

Molecules are shown by their SMILES. Active and inactive are the calls of the source. The calls are words filed in the database; no cut-off is given here.

Cytochrome P450 3A4, sequence (P08684 whole entry): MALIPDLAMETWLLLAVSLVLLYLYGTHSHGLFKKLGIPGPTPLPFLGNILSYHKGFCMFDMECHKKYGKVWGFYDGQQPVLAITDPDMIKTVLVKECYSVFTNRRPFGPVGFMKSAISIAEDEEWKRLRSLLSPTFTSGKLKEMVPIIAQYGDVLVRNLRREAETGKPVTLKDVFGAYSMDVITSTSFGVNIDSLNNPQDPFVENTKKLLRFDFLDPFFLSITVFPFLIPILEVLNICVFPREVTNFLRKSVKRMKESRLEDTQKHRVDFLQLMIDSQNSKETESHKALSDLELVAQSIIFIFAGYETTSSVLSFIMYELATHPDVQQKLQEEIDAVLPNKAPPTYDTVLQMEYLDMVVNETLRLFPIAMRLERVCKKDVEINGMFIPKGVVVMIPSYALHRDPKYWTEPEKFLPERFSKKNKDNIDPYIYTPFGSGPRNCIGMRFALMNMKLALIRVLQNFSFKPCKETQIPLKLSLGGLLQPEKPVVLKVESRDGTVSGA
Voltage-gated inwardly rectifying potassium channel KCNH2, sequence (Q12809 whole entry): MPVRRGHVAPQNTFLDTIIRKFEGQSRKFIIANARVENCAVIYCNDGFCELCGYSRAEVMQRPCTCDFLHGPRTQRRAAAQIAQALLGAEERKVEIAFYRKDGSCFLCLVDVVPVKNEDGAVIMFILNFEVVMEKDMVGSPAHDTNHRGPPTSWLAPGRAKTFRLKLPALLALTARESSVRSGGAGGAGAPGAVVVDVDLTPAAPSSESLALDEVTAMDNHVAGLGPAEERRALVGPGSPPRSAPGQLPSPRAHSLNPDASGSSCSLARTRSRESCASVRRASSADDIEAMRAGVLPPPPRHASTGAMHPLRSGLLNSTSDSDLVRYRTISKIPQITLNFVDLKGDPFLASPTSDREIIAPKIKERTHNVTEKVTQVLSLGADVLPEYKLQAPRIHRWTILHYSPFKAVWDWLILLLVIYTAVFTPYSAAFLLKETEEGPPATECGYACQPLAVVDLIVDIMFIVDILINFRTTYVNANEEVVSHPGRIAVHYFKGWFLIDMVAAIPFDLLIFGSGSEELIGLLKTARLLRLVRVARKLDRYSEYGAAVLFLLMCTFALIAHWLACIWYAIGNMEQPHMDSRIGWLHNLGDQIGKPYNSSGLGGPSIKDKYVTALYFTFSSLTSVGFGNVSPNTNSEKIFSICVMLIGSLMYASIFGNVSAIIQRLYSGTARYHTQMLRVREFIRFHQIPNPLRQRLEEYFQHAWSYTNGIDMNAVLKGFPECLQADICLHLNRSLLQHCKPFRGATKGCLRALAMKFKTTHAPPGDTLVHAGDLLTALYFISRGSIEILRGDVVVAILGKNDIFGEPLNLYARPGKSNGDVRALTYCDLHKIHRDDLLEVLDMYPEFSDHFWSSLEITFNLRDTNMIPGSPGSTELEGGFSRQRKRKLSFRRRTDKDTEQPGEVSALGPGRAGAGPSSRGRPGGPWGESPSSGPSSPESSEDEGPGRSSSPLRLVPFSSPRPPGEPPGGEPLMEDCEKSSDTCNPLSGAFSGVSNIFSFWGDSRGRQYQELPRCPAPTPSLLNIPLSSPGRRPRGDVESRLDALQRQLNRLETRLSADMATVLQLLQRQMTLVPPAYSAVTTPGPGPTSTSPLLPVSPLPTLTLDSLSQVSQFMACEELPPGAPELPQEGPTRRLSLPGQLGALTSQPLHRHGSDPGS

`O=S(=O)(c1ccccc1)N(CC(F)(F)F)c1ccc(C(O)(C(F)(F)F)C(F)(F)F)cc1` [T091317]: the concentration at 120 h in data set [1] is 255 ng/mL; in [4] it was 7900 ng/g. In addition, the Activity in the data set on Mus musculus [2] is listed as 20%; in the data set on Mus musculus [3], 270%; in the data set on Mus musculus [5], 23%.
Turning to `COC(=O)C(C)(C1CCCc2c([nH]c3ccc(Cl)cc23)C1)S(=O)(=O)c1ccccc1` (stereo not drawn), the outcome in [6] and in [7] was inactive.
`N#Cc1noc([C@](F)([C@H]2Cc3[nH]c4ccc(Cl)cc4c3C2)S(=O)(=O)c2ccccc2)n1` (racemic) displayed an EC50 in data set [8] of 160 nM. In addition, the IC50 in data set [9] was 100 nM.
Regarding `Cc1nnc([C@](F)([C@H]2Cc3[nH]c4ccc(Cl)cc4c3C2)S(=O)(=O)c2ccccc2)o1`, the concentration at 120 h in [10] was found to be 2150 ng/mL; in data set [1], 180 ng/mL; in data set [15], 5490 ng/g; in data set [4], 1130 ng/g; in data set [17], 13200 ng/g; in data set [18], 682 ng/mL. Further, the Activity in the data set with Mus musculus [11] is recorded as -2%; in the data set with Mus musculus [12], 36%; in the data set on Mus musculus [13] it was -19%; in the data set on Mus musculus [14], 27%; with Mus musculus [2] it was 9%; with Mus musculus [3] it was 100%. The Activity result is recorded as “Not Active” in [16]; 27% in the data set on Mus musculus [5]; “Not Active” at Cytochrome P450 3A4; 45% in the data set on Mus musculus [19]; 9% with Mus musculus [20].
In data set [8], `COC(=O)c1noc([C@](F)([C@H]2Cc3[nH]c4ccc(Cl)cc4c3C2)S(=O)(=O)c2ccccc2)n1` (racemic) displayed an EC50 of 1260 nM. Further, in data set [9], the IC50 is 1630 nM.
